Reference: PubChem BioAssay (NCI)
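A five-concentration, 48-hour dose response in 96-well plates underlies each endpoint, interpolated linearly between surrounding concentrations. At the GI50, growth is halved. Definition used: TGI = concentration required for complete inhibition of growth.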

Tests used:
Test in all cases: inhibition of tumour cell growth, NCI panel, 48 h
[1] = system: NCI/ADR-RES ovarian
[2] = system: SK-MEL-5 melanoma
[3] = system: UO-31 renal
[4] = system: SF-268 CNS
[5] = system: RPMI-8226 leukemia
[6] = system: HCT-15 colon
[7] = system: NCI-H460 lung
[8] = system: OVCAR-3 ovarian
[9] = system: SK-MEL-28 melanoma
[10] = system: LOX IMVI melanoma
[11] = system: SR leukemia
[12] = system: SW-620 colon
[13] = system: UACC-62 melanoma
[14] = system: A549 NSCLC
[15] = system: MCF7 breast
[16] = system: HCC-2998 colon
[17] = system: BT-549 breast
[18] = system: SNB-19 CNS
[19] = system: SNB-75 CNS
[20] = system: SF-295 CNS
[21] = system: DU-145 prostate
[22] = system: U251 CNS
[23] = system: MALME-3M melanoma
[24] = system: MDA-MB-435
[25] = system: K-562 leukemia
[26] = system: SK-OV-3 ovarian
[27] = system: RXF 393 renal
[28] = system: CCRF-CEM leukemia
[29] = system: M14 melanoma
[30] = system: SN12C renal
[31] = system: SF-539 CNS
[32] = system: SK-MEL-2 melanoma
[33] = system: 786-0 renal
[34] = system: NCI-H226 lung
[35] = system: TK-10 renal
[36] = system: HOP-62 NSCLC
[37] = system: CAKI-1 renal
[38] = system: HT29 colon
[39] = system: ACHN renal
[40] = system: OVCAR-8 ovarian
[41] = system: MDA-MB-231 breast
[42] = system: HOP-92 NSCLC
[43] = system: MOLT-4 leukemia
[44] = system: HL-60(TB) leukemia
[45] = system: HS 578T breast
[46] = system: T-47D breast
[47] = system: A498 renal
[48] = system: IGROV1 ovarian
[49] = system: NCI-H23 lung
[50] = system: OVCAR-4 ovarian
[51] = system: EKVX NSCLC
[52] = system: HCT-116 colon
[53] = system: OVCAR-5 ovarian
[54] = system: UACC-257 melanoma
[55] = system: NCI-H522 lung
[56] = system: COLO 205 colon
[57] = system: PC-3 prostate
[58] = system: KM12 colon

Which results are given for `N#C/C(=C\c1cn(Cc2ccccc2)c2ccccc12)C(=O)Nc1ncc(Cc2ccccc2Cl)s1`?
GI50 [1]: 2680 nM; TGI [1]: 13300 nM; GI50 [2]: 2620 nM; TGI [2]: 7080 nM; GI50 [3]: 1460 nM; TGI [3]: 3180 nM; GI50 [4]: 2790 nM; TGI [4]: 23400 nM; GI50 [5]: 3230 nM; TGI [5]: > 100000 nM; GI50 [6]: 2830 nM; TGI [6]: > 100000 nM; GI50 [7]: 530 nM; TGI [7]: 1990 nM; GI50 [8]: 1560 nM; TGI [8]: 3620 nM; GI50 [9]: 2360 nM; TGI [9]: 6740 nM; GI50 [10]: 4610 nM; TGI [10]: 48800 nM; GI50 [11]: 1110 nM; TGI [11]: 3580 nM; GI50 [12]: 1520 nM; TGI [12]: 4200 nM; GI50 [13]: 1520 nM; TGI [13]: 3160 nM; GI50 [14]: 1790 nM; TGI [14]: 6020 nM; GI50 [15]: 3010 nM; TGI [15]: > 100000 nM; GI50 [16]: 3230 nM; TGI [16]: > 100000 nM; GI50 [17]: 2940 nM; TGI [17]: 11600 nM; GI50 [18]: 3070 nM; TGI [18]: 17800 nM; GI50 [19]: 1500 nM; TGI [19]: 4540 nM; GI50 [20]: 2360 nM; TGI [20]: 6870 nM; GI50 [21]: 2750 nM; TGI [21]: > 100000 nM; GI50 [22]: 1360 nM; TGI [22]: 2920 nM; GI50 [23]: 1780 nM; TGI [23]: 4140 nM; GI50 [24]: 1790 nM; TGI [24]: 4720 nM; GI50 [25]: 3030 nM; TGI [25]: > 100000 nM; GI50 [26]: 1800 nM; TGI [26]: 4660 nM; GI50 [27]: 2270 nM; TGI [27]: 6140 nM; GI50 [28]: 2510 nM; TGI [28]: > 100000 nM; GI50 [29]: 2520 nM; TGI [29]: 10400 nM; GI50 [30]: 1570 nM; TGI [30]: 3880 nM; GI50 [31]: 1680 nM; TGI [31]: 3420 nM; GI50 [32]: 2050 nM; TGI [32]: 4850 nM; GI50 [33]: 1510 nM; TGI [33]: 3110 nM; GI50 [34]: 1700 nM; TGI [34]: 5670 nM; GI50 [35]: 1930 nM; TGI [35]: 4200 nM; GI50 [36]: 2520 nM; TGI [36]: 10400 nM; GI50 [37]: 1430 nM; TGI [37]: 3750 nM; GI50 [38]: 2660 nM; TGI [38]: > 100000 nM; GI50 [39]: 823 nM; TGI [39]: 2140 nM; GI50 [40]: 1350 nM; TGI [40]: 3130 nM; GI50 [41]: 1930 nM; TGI [41]: 4790 nM; GI50 [42]: 1880 nM; TGI [42]: 6000 nM; GI50 [43]: 2490 nM; TGI [43]: > 100000 nM; GI50 [44]: > 100000 nM; TGI [44]: > 100000 nM; GI50 [45]: 1930 nM; TGI [45]: 7080 nM; GI50 [46]: 1690 nM; TGI [46]: 4150 nM; GI50 [47]: 1080 nM; TGI [47]: 2870 nM; GI50 [48]: 1930 nM; TGI [48]: 5570 nM; GI50 [49]: 1710 nM; TGI [49]: 4080 nM; GI50 [50]: 393 nM; TGI [50]: 1610 nM; GI50 [51]: 2820 nM; TGI [51]: 12700 nM; GI50 [52]: 1270 nM; TGI [52]: 3890 nM; GI50 [53]: 1700 nM; TGI [53]: 4590 nM; GI50 [54]: 3300 nM; TGI [54]: > 100000 nM; GI50 [55]: 1800 nM; TGI [55]: 6360 nM; GI50 [56]: 1140 nM; TGI [56]: 2810 nM; GI50 [57]: 2010 nM; TGI [57]: 7480 nM; GI50 [58]: 1890 nM; TGI [58]: 6620 nM
